Test results from patent US20220313782A1, “METHODS AND COMPOSITIONS INVOLVING TERT ACTIVATING THERAPIES” (BOARD OF REGENTS, THE UNIVERSITY OF TEXAS SYSTEM, priority 2019, published 2022).

What was measured:
H3K9 methylation marks = details: peripheral administration; cited from earlier work
Tert gene expression = assay: Tert mRNA levels in cortex and hippocampus of AD mice treated with histone methyltransferase inhibitors; assay type: in vivo, mouse; details: cortex and hippocampus of AD mice (5xFAD), FIG. 1I
Description: Tert mRNA levels in the cortex of 3xTg-AD and wildtype control (B6129SF2/J) mice (n=4; 3-month-old). (B) Tert mRNA levels in the hippocampus of 5xFAD and wildtype littermate control mice (n=4; 2˜3-month-old). (C) Tert mRNA levels in primary cortical and hippocampal neurons isolated from 3xTg-AD and control mice at DIV 14 (n=3). (D) Tert mRNA levels in primary cortical and hippocampal neurons isolated from 5xFAD and control mice at DIV 14 (n=3). (E) Telomerase activity in hippocampal neurons isolated from 5xFAD and control mice (n=4; 2˜3-month-old). (F) Representative view of H3K9me3 repressive histone mark occupancy in Tert gene of 5xFAD and control mouse primary neurons at DIV 14. […]
Focusing in particular on the neuronal population, the inventors isolated and cultured primary cortical and hippocampal neurons from E18.5-E19.5 AD mouse brains, and Tert mRNA levels were examined at 14 Days in vitro (DIV), by which time the synaptic network is mature. […] To investigate whether reversible H3K9 methylation is involved in the repression of Tert, the inventors assessed the impact of histone methyltransferase inhibitors chaetocin and BIX-01294, the non-selective cofactor-competitive inhibitor and the selective substrate-competitive inhibitor, respectively, in the AD mouse model (Greiner et al., Nat Chem Biol, 2005; Kubicek et al., Mol Cell, 2007; Yuan et al., ACS Chem Biol, 2012). […]

SMILES: COc1cc2nc(N3CCCN(C)CC3)nc(NC3CCN(Cc4ccccc4)CC3)c2cc1OC [BIX-01294]
- H3K9 methylation marks in the central nervous system (H3K9 methylation marks): reduce H3K9 methylation marks
- Tert gene expression (Tert mRNA levels) (Tert gene expression): de-repression of Tert gene expression
